{"source": "patent US10537531B2", "about": "“Casein coated drug-loaded iron oxide nanoparticles” (Emory University, priority 2014, dated 2020)", "test_system": "Caco-2 cells", "assay": "Uptake by Caco-2 cell monolayer (fluorescence microscopy of DOX)", "assay_type": "cell-based", "conditions": "Caco-2 monolayer, 17.2 μm, 10 min incubation", "method": "To investigate the cellular uptake of the released DOX from CN-DOX-IO by the small intestine in vitro, the monolayer of Caco-2 cells was incubated with CN-DOX-IO at a dosage of 17.2 μm for different lengths of time (10, 30 and 60 min). For comparison, cells incubated with DOX-IO and DOX were examined as controls. The intracellular accumulation of DOX was examined by the fluorescent microscope utilizing the fluorescence of DOX.", "data": [{"smiles": "COc1cccc2c1C(=O)c1c(O)c3c(c(O)c1C2=O)C[C@@](O)(C(=O)CO)C[C@@H]3O[C@H]1C[C@H](N)[C@H](O)[C@H](C)O1", "note": "[free DOX, doxorubicin]", "values": [{"measurement": "intracellular localisation of DOX fluorescence signal", "result": "observed in the nucleus"}]}]}
